Results published in patent US20250154145A1, “OXER1 ANTAGONISTS AND USES THEREOF” (Fairhaven Pharmaceuticals Ins., priority 2021, published 2025).
pIC50: −log10 of the molar value.

Columns and labels:
Human OXER1 = target: T1, Human OXER1 (Homo sapiens, UniProt Q8TDS5); experiment: BRET early endosome trafficking assay (OXER1-Rluc8 / rGFP-FYVE in HEK293 cells); assay type: cell-based; details: HEK293 cells transfected with OXER1-Rluc8 and rGFP-FYVE, 5-oxo-ETE agonist
T1 construct: host or cells: HEK293 cells, transient transfection
T1 sequence (Q8TDS5 whole entry): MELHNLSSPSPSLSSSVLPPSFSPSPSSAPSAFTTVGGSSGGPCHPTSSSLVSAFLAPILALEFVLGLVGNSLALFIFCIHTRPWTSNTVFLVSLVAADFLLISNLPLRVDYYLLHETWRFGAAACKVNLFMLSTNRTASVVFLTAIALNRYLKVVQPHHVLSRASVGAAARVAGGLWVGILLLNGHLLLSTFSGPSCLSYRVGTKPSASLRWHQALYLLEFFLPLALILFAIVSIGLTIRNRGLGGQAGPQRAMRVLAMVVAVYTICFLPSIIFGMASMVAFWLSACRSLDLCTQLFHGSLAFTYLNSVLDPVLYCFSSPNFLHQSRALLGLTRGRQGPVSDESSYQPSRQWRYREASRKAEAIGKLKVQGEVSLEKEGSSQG
Excerpt: Background—The following assay can be used for determination of OXER1 activation in living HEK293 cells. Signalling functions of GPCRs are tightly regulated by endocytosis, the targeting of receptors to endosomes and their sorting to lysosomes or recycling to the plasma membrane. The early endosomes (EEs) trafficking assay (Namkung et al., Monitoring G protein-coupled receptor and β-arrestin trafficking in live cells using enhanced bystander BRET, Nat Commun 2016, 7: 12178) uses Rluc8-tagged OXER1 and Renilla GFP (rGFP) attached to the FYVE domain from human endofin/zinc finger FYVE domain-containing protein 16, which binds phosphatidylinositol 3-phosphate in EEs. Agonist stimulation of OXER1-Rluc8 leads to trafficking of the receptor to EEs, and ensuing increase of the donor concentration relative to the rGFP-FYVE acceptor anchored in the same cellular compartment, and thus results in an increase in BRET signal.
Plasmids—Human OXER1 VersaClone cDNA was obtained from R&D Systems. Rluc8 (A55T, C124A, S130A, K136R, A143M, M185V, M253L, and S287L variant of theRenilla renformis luciferase) gBlocks gene fragment (Integrated DNA Technologies, IA) was inserted with linker in frame at the C-terminus of OXER1. The FYVE domain from human endofin (residues Q739 to K806) attached in frame at the C terminus of a humanized Renilla GFP (rGFP), were synthesized as gBlocks gene fragments.
Bioluminescence Resonance Energy Transfer (BRET) Measurement—HEK293 cells were transfected with OXER1-Rluc8 and rGFP-FYVE. The following day, transiently transfected cells were seeded in 96-well white clear bottom microplates coated with poly-D-lysine and left in culture for 24 hours. Cells were washed once with Tyrode's buffer (140 mmol/L NaCl, 1 mmol/L CaCl2, 2.7 mmol/L KCl, 0.49 mmol/L MgCl2, 0.37 mmol/L NaH2PO4, 5.6 mmol/L glucose, 12 mmol/L NaHCO3, and 25 mmol/L HEPES, pH 7.5) before performing assays in Tyrode's buffer. Test compounds were incubated with cells for 15 minutes at 37° C. before addition of […] of the OXER1 agonist 5-oxo-6E,8Z,1IZ,14Z-eicosatetraenoic acid (5-oxo-ETE) for 45 minutes at 37° C. The Rluc8 substrate coelenterazine 400A (Prolume, Lakeside, AZ) was added at a final concentration of […] and BRET readings were collected using a Spark or Infinite M1000 microplate reader (Tecan, Morrisville, NC). BRET^2 readings between Rluc8 and rGFP were collected by sequential integration of the signals detected in the 370 to 450 nm (Rluc8) and 510 to 540 nm (rGFP) windows. The BRET signal was calculated as the ratio of light emitted by acceptor (rGFP) over the light emitted by donor (Rluc8). Ligand-promoted net BRET values were calculated by subtracting vehicle-induced net BRET from ligand-induced net BRET.

neutrophils = experiment: Neutrophil calcium flux assay (5-OXO-ETE-stimulated, Indo-1 fluorescence); assay type: cell-based; details: 5-OXO-ETE-stimulated calcium flux
In short: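 Indo-1-loaded neutrophils (5×10^6 cells/ml, 30 min at 37 °C) in HBSS with Ca/Mg and HEPES, pre-incubated 5 min with antagonist or buffer. Stimulated with 5-OXO-ETE added at 200 nM (4× stock); fluorescence (ex 331/em 410 nm) read every 5 s for 30 cycles, expressed as net fluorescence.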

Row | Structure (SMILES) | pIC50 (Human OXER1) | pIC50 (neutrophils; Neutrophil) | pIC50 (neutrophils)
1 | C[C@H](CC(=O)O)CC(=O)c1c(CCCCOCc2cccc(Cl)c2)n(C)c2ncc(C(F)(F)F)cc12 [Compound I-182] | 6.52 to 7.00 | > 7.00 | –
2 | C[C@H](CC(=O)O)CC(=O)c1c(CCCCCCc2cccc(Cl)c2)n(C)c2ccc(C#N)cc12 [Compound I-98] | > 7.00 | > 7.00 | –
3 | C[C@H](CC(=O)O)CC(=O)c1c(CCCCOCc2cccc(Cl)c2)n(C)c2ccc(C#N)cc12 [Compound I-180] | > 7.00 | > 7.00 | –
4 | C[C@@H](CC(=O)O)CC(=O)c1c(CCCCCCc2cccc(Cl)c2)n(C)c2ccc(Cl)cc12 [Compound I-1] | 6.52 to 7.00 | < 6.52 | –
5 | C[C@H](CC(=O)O)CC(=O)c1c(CCCCCC(F)c2cccc(Cl)c2)n(C)c2ccc(Cl)cc12 (stereo partly drawn) [Compound I-47] | > 7.00 | > 7.00 | –
6 | CC(C)CCOCc1c(C(=O)C[C@H](C)CC(=O)O)c2cc(Cl)ccc2n1C [Compound I-73] | < 6.52 | < 6.52 | –
7 | C[C@@H](CC(=O)O)CC(=O)c1c(CCCCCCc2cccc(Cl)c2)oc2ccc(Cl)cc12 [Compound I-22] | 6.52 to 7.00 | < 6.52 | –
8 | C[C@H](CC(=O)O)CC(=O)c1c(CCCCOCc2cccc(Cl)c2)n(C)c2ncc(Cl)cc12 [Compound I-83] | 6.52 to 7.00 | > 7.00 | –
9 | C[C@H](CC(=O)O)CC(=O)c1c(CCCCOCc2cccc(Cl)c2)n(C)c2ccc(Cl)cc12 [Compound I-60] | 6.52 to 7.00 | > 7.00 | –
10 | CONC(=O)C[C@@H](C)CC(=O)c1c(CCCCCCc2cccc(Cl)c2)n(C)c2ccc(Cl)cc12 [Compound I-19] | < 6.52 | < 6.52 | –
11 | C[C@@H](CC(=O)O)CC(=O)c1c([C@H](O)CCCCCc2cccc(Cl)c2)n(C)c2ccc(Cl)cc12 [Compound I-6] | < 6.52 | < 6.52 | –
12 | C[C@H](CC(=O)O)CC(=O)c1c(CCCCOCc2ccccc2)n(C)c2ncc(C#N)cc12 [Compound I-105] | 6.52 to 7.00 | > 7.00 | –
13 | C[C@H](CC(=O)O)CC(=O)c1c(CCCCCC(=O)c2cccc(Cl)c2)n(C)c2ccc(Cl)cc12 [Compound I-45] | 6.52 to 7.00 | 6.52 to 7.00 | –
14 | C[C@H](CC(=O)NS(C)(=O)=O)CC(=O)c1c(CCCCCCc2cccc(Cl)c2)n(C)c2ccc(Cl)cc12 [Compound I-14] | 6.52 to 7.00 | 6.52 to 7.00 | –
15 | C[C@@H](CC(=O)O)CC(=O)c1c([C@@H](O)CCCCCc2cccc(Cl)c2)n(C)c2ccc(Cl)cc12 [Compound I-4] | < 6.52 | < 6.52 | –
16 | C[C@H](CC(=O)O)CC(=O)c1c(CCCCCC(O)c2cccc(Cl)c2)n(C)c2ccc(Cl)cc12 (stereo partly drawn) [Compound I-44] | > 7.00 | > 7.00 | –
17 | C[C@H](CC(=O)O)CC(=O)c1c(CCCCCCc2ccc(O)c(Cl)c2)n(C)c2ccc(Cl)cc12 [Compound I-48] | > 7.00 | > 7.00 | –
18 | C[C@H](CC(=O)O)CC(=O)c1c(CCCCCCc2cccc(Cl)c2)oc2ccc(Cl)cc12 [Compound I-21] | 6.52 to 7.00 | < 6.52 | –
19 | CC(CC(=O)O)CC(=O)c1c(CCCCOCc2cccc(Cl)c2)n(C)c2ccc(C(F)(F)F)cc12 (stereo not drawn) [Compound I-185] | 6.52 to 7.00 | > 7.00 | –
20 | CC(CC(=O)O)CC(=O)c1c(CCCCOCc2cccc(Cl)c2)n(C[C@@H](O)CO)c2ncc(Cl)cc12 (stereo partly drawn) [Compound I-376] | – | < 6.52 | –
21 | C[C@H](CC(=O)O)CC(=O)c1c(CCCCCCCC#CC2CC(F)(F)C2)n(C)c2ccc(Cl)cc12 [Compound I-331] | – | > 7.00 | –
22 | CC(CC(=O)O)CC(=O)c1c(CCCCOCc2cncnc2)n(C)c2ncc(C#N)cc12 (stereo not drawn) [Compound I-388] | – | < 6.52 | –
23 | CC(CC(=O)O)CC(=O)c1c(CCCCCC(O)c2cccc(C(=O)N(C)C)c2)n(C)c2ncc(C#N)cc12 (stereo not drawn) [Compound I-314] | – | > 7.00 | –
24 | CC(CC(=O)O)CC(=O)c1c(CCCCCC(O)c2cccc(C#N)c2)n(C)c2ncc(Cl)cc12 (single isomer, unassigned) [Compound I-309] | – | – | < 6.52
25 | C[C@@H](CC(=O)c1c(CCCCCCC#CC2CC(F)(F)C2)n(C)c2ccc(Cl)cc12)Cc1nnn[nH]1 [Compound I-352] | – | > 7.00 | –

Row | Structure (SMILES) | pIC50 (Human OXER1) | pIC50 (neutrophils; Neutrophil) | pIC50 (neutrophils)
26 | Cn1c(CCCCCCc2cccc(Cl)c2)c(C(=O)N2CC[C@H](c3nnn[nH]3)C2)c2cc(C#N)cnc21 [Compound I-223] | – | > 7.00 | –
27 | Cn1c(CCCCCCC#CC2CC(F)(F)C2)c(C(=O)N2CC[C@H](C(=O)NS(=O)(=O)C(F)(F)F)C2)c2cc(C#N)cnc21 [Compound I-364] | – | < 6.52 | –
28 | C[C@H](CC(=O)O)CC(=O)c1c(CCOCCCC#CC2CC(F)(F)C2)n(C)c2ccc(Cl)cc12 [Compound I-326] | – | > 7.00 | –
29 | C[C@H](CC(=O)O)CC(=O)c1c(CCCCCCC#CC2CC(F)(F)C2)n(C)c2ncc(Cl)cc12 [Compound I-320] | – | > 7.00 | –
30 | CC(CC(=O)O)CC(=O)c1c(CCCCCC(O)c2ccc(Cl)cc2)n(C)c2ncc(C#N)cc12 (stereo not drawn) [Compound I-310] | – | 6.52 to 7.00 | –
31 | C[C@H](CC(=O)O)CC(=O)c1c(CCCCCOc2cnccn2)n(C)c2ccc(Cl)cc12 [Compound I-132] | – | < 6.52 | –
32 | CC(CC(=O)O)CC(=O)n1c(CCCCCCc2cccc(Cl)c2)cc2ncc(Cl)cc21 (stereo not drawn) [Compound I-468] | – | – | < 6.52
33 | C[C@H](CC(=O)O)CC(=O)c1c(CCCCOCc2cccc(Cl)c2)[nH]c2ccc(C#N)cc12 [Compound I-382] | – | > 7.00 | –
34 | C[C@H](CC(=O)O)CC(=O)c1c(CCCCOCc2cccc(C#N)c2)n(C)c2cnccc12 [Compound I-394] | – | > 7.00 | –
35 | CC(=O)N(C)c1cccc(C(O)CCCCCc2c(C(=O)CC(C)CC(=O)O)c3cc(C#N)cnc3n2C)c1 (stereo not drawn) [Compound I-313] | – | < 6.52 | –
36 | Cn1c(CCCCOCc2cccc(Cl)c2)c(C(=O)N2CC[C@H](C(=O)O)C2)c2cc(C(F)(F)F)ccc21 [Compound I-187] | – | 6.52 to 7.00 | –
37 | C[C@@H](CC(=O)O)CC(=O)c1c(CCCCCCC#CC2CC(F)(F)C2)n(C)c2ncc(C#N)cc12 [Compound I-329] | – | < 6.52 | –
38 | C[C@H](CC(=O)N[C@@H](CCC(N)=O)C(=O)O)CC(=O)c1c(CCCCOCc2ccccc2)n(C)c2ncc(C#N)cc12 [Compound I-460] | – | < 6.52 | –
39 | C[C@@H](CC(=O)O)CC(=O)c1c(CCCCCCc2cncs2)n(C)c2ncc(C#N)cc12 [Compound I-372] | – | < 6.52 | –
40 | COc1ccc2c(c1)c(C(=O)C[C@H](C)CC(=O)O)c(CCCCCCc1cccc(Cl)c1)n2C [Compound I-96] | – | > 7.00 | –
41 | C[C@H](CC(=O)O)CC(=O)c1c(CCCCOCc2ccc(F)cc2)n(C)c2ncc(C#N)cc12 [Compound I-368] | – | – | 6.52 to 7.00
42 | COC(=O)[C@H]1CCN(C(=O)c2c(CCCCCCC#CC3CC(F)(F)C3)n(C)c3ncc(C#N)cc23)[C@@H]1C [Compound I-351] | – | < 6.52 | –
43 | CC(CC(=O)O)CC(=O)c1c(CCCCCCc2cccc(Cl)c2)n(C[C@@H](O)CO)c2ncc(C(N)=O)cc12 (stereo partly drawn) [Compound I-283] | – | 6.52 to 7.00 | –
44 | CC(CC(=O)O)CC(=O)c1c(CCCCOCc2cccc(C#N)c2)n(C)c2ncccc12 (stereo not drawn) [Compound I-392] | – | 6.52 to 7.00 | –
45 | C[C@H](CC(=O)O)CC(=O)c1c(CCCCC#Cc2ccccc2)n(C)c2ccc(Cl)cc12 [Compound I-117] | – | > 7.00 | –
46 | CC(CC(=O)O)CC(=O)c1c(CCCCCCc2cccc(Cl)c2)n(C)c2ccc(C(F)(F)F)cc12 (stereo not drawn) [Compound I-58] | – | > 7.00 | –
47 | Cn1c(CCCCCCC#CC2CC(F)(F)C2)c(C(=O)N2CC[C@H](C(=O)NCC(=O)O)C2)c2cc(C#N)cnc21 [Compound I-462] | – | < 6.52 | –
48 | C[C@@H](CC(=O)O)CC(=O)c1c(CCCCO[C@H](C)c2ccccc2)n(C)c2ncc(C#N)cc12 [Compound I-433] | – | < 6.52 | –
49 | C[C@H](CC(=O)O)CC(=O)c1c(CCCCC#Cc2cccnc2)n(C)c2ccc(Cl)cc12 [Compound I-176] | – | > 7.00 | –
50 | CC(=O)NCCCCCc1c(C(=O)C[C@H](C)CC(=O)O)c2cc(Cl)ccc2n1C [Compound I-126] | – | < 6.52 | –
